Experimental data taken from article PMC7115697 (Peptides, 2016).

Experiments:
[1] = test system: lentiviruses coding EGFP and coated with FuG-C hybrid envelope protein; format: cell-based
human erythrocytes = details: pH 7.4
equine erythrocytes = details: pH 7.4
[2] = test system: VLPs coated with VSV envelope protein; format: biochemical, Ebola virus
[3] = test system: VLPs coated with Marburg virus envelope protein; format: biochemical, Ebola virus

Substance	inhibitory effect on lentivirus infectivity [1]	hemolytic activity (human erythrocytes)	hemolytic activity (equine erythrocytes)	amount of produced GFP (GFP fluorescence of cell lysates) [1]	concentrations that effectively block the virus entry [1]	virolytic activity on enzymatic VLPs [2]	virolytic activity on enzymatic VLPs [3]
Hecate	substantial antiviral effect	moderately lyse human erythrocytes	virtually no effect on equine RBCs				
WEAKLAKALAKALAKHLAKALAKALKACEA	substantial antiviral effect	moderate hemolytic activity	moderate hemolytic activity	might slightly increase the amount of produced GFP but the increase is not significant			
GALA	remarkably potent inhibitor				above 5 μM	moderate virolytic activity	moderate virolytic activity
